Laboratory results published in patent US12545643B2, “3,5-diaminobenzoic acid compound, and Pin1 inhibitor and therapeutic agent for inflammatory diseases using same” (Amenis Bioscience, Inc., priority 2020, dated 2026).

How the values were obtained:
Pin1 [1] = target: T1, Pin1 (Homo sapiens, UniProt Q13526); test: Cell-based assay of Pin1 inhibition (AMPK phosphorylation level as index, Western blot); set-up: endogenous in cells; host or cells: 293T cells; key: +++: a higher level of AMPK phosphorylation is promoted, as compared with C1; ++: a similar level of AMPK phosphorylation is promoted, as compared with C1; +: a lower level of AMPK phosphorylation is promoted, as compared with C1; −: no or almost no promotion is found in AMPK phosphorylation; settings: 293T cells, compound at 50 μM, 10 mM 2-DG, pAMPK level compared with known Pin1 inhibitor C1
T1 sequence (Q13526 whole entry): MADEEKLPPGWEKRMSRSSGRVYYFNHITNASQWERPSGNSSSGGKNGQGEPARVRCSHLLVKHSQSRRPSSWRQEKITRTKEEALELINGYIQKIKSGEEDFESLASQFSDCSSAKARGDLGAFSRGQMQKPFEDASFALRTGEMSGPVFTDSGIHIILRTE
Experimental: To evaluate the inhibitory activity of each compound synthesized in Example 1 against the function of Pin1, a cell-based assay was performed according to the method previously developed by the inventors (Yusuke Nakatsu et al., Journal of Biological Chemistry, 2015, Vol. 290, No. 40, pp. 24255-24266), in which the phosphorylation level of AMPK (AMP-activated protein kinase), a protein whose phosphorylation is suppressed by Pin1, was examined as an index.
Briefly, 293T cells were plated on a collagen-coated 24-well plate. Forty-eight hours later, each compound synthesized in the preceding example (at 50 μM) was added to the plate, and the plate was left to stand in an incubator for 30 minutes. Subsequently, 10 mM 2-DG was added to the plate, and one hour later, each sample was collected with a buffer containing mercaptoethanol and SDS.
SDS-PAGE and blotting were performed, and blocking was then performed with 3% BSA for 1 hour, according to conventional protocols. Subsequently, a pAMPK antibody (Cell Signaling; diluted 1:2000 in Can Get Signal Solution 1, Toyobo) as a primary antibody, and an HRP-linked anti rabbit IgG (GE Healthcare; diluted 1:4000 in Can Get Signal Solution 2, Toyobo) as a secondary antibody were allowed to react at ambient temperature for 1 hour prior to detection.
The inhibitory activity against the function of Pin1 was evaluated as indicated below by comparing the inhibition levels between each compound and a known Pin1 inhibitor, C1 ((R)-2-(5-(4-methoxyphenyl)-2-methylfuran-3-carboxamido)-3-(naphthalene-6-yl) propanoic acid):
(+++): a higher level of AMPK phosphorylation is promoted, as compared with C1;
(++): a similar level of AMPK phosphorylation is promoted, as compared with C1;
(+): a lower level of AMPK phosphorylation is promoted, as compared with C1;
(−): no or almost no promotion is found in AMPK phosphorylation.

Pin1 [2] = target: T1, Pin1; test: Cell-free assay of peptidylprolyl isomerase activity (absorbance at 330 nm, substrate Suc-Ala-Glu-Pro-Phe-pNA); assay type: biochemical; settings: compound 10 μM, Pin1 5 nM, substrate peptide 60 μM, 10° C.; read-out: Pin1 inhibition activity Cell-free assay (inhibition ratio)
Experimental: For some compounds synthesized in Example 1, the inhibitory activity against the function of Pin1 was measured by a cell-free assay based on the method by Janowski et al. (AnalyticalBiochemistry, 1997, Vol. 252, Issue 2, pp. 299-307) because there is an assay measuring peptidylprolylisomerase activity without cells (cell-free).
Briefly, an assay buffer (containing 35 mM HEPES, pH 7.8, 50 μM DTT and 0.0025% NP40) was equilibrated to 10° C. in a quartz cell with stirring function. To this solution was added the compound dissolved in DMSO (10 μM) and then UV spectrum of the resulting solution was immediately measured. Then Pin1 (final concentration of 5 nM) was added to the solution. The reaction was initiated by adding a substrate peptide (Suc-Ala-Glu-Pro-Phe-pNA) dissolved in 0.5 M LiCl solution in trifluoroethanol (final concentration of 60 μM). After reaction was initiated, the change of absorbance at 330 nm was measured for 5 minutes. The resultant reaction curve was fitted to a first order decay model to calculate the reaction rate. The catalytic reaction rate was calculated by subtracting the background rate from the reaction rate. The inhibition ratio (%) was calculated from the catalytic reaction rates in the presence and absence of the compound. The higher inhibition ratio means the higher inhibitory activity against Pin1 function.

SMILES	Pin1 inhibition activity Cell-based assay (Pin1 [1])	inhibition at 10 µM (Pin1 [2]) [%]
COC(=O)c1cc(NC(=O)c2ccc3ccccc3c2)cc(NC(=O)n2c3ccccc3c3ccccc32)c1 [Compound H-591]	+++ (Hydrolysis causes conversion to H-594)	
O=C(O)c1cc(NC(=O)c2ccc3ccccc3c2)cc(NC(=O)n2c3ccccc3c3ccccc32)c1 [Compound H-594]	+++	
COC(=O)c1cc(NC(=O)Nc2cccc3ccccc23)cc(NC(=O)c2ccc3ccccc3c2)c1 [Compound H-609]	++ to +++ (Hydrolysis causes conversion to H-613)	
O=C(Nc1cc(NC(=O)c2ccc3ccccc3c2)cc(C(=O)O)c1)Nc1cccc2ccccc12 [Compound H-613]	+ to ++	38
COC(=O)c1cc(NC(=O)c2ccccc2)cc(NC(=O)n2c3ccccc3c3ccccc32)c1 [Compound H-679]	++ (Hydrolysis causes conversion to H-681)	
O=C(O)c1cc(NC(=O)c2ccccc2)cc(NC(=O)n2c3ccccc3c3ccccc32)c1 [Compound H-681]	++	
O=C(O)c1cc(NC(=O)c2cccnc2)cc(NC(=O)n2c3ccccc3c3ccccc32)c1 [Compound H-682]	+	
COC(=O)c1cc(NC(=O)c2ccc(NC(C)=O)cc2)cc(NC(=O)n2c3ccccc3c3ccccc32)c1 [Compound H-687]	− (Hydrolysis causes conversion to H-694)	
COC(=O)c1cc(NC(=O)c2ccc3c(c2)OCO3)cc(NC(=O)n2c3ccccc3c3ccccc32)c1 [Compound H-690]	− (Hydrolysis causes conversion to H-695)	
O=C(O)c1cc(NC(=O)c2ccc3c(c2)OCCO3)cc(NC(=O)n2c3ccccc3c3ccccc32)c1 [Compound H-692]	+++	80 to 94
CC(=O)Nc1ccc(C(=O)Nc2cc(NC(=O)n3c4ccccc4c4ccccc43)cc(C(=O)O)c2)cc1 [Compound H-694]	++	69
O=C(O)c1cc(NC(=O)c2ccc3c(c2)OCO3)cc(NC(=O)n2c3ccccc3c3ccccc32)c1 [Compound H-695]	+++	
COC(=O)c1cc(NC(=O)c2ccc(OC(C)=O)cc2)cc(NC(=O)n2c3ccccc3c3ccccc32)c1 [Compound H-696]	++ (Hydrolysis causes conversion to H-697)	
O=C(O)c1cc(NC(=O)c2ccc(O)cc2)cc(NC(=O)n2c3ccccc3c3ccccc32)c1 [Compound H-697]	+	
COC(=O)c1cc(NC(=O)c2cnccn2)cc(NC(=O)n2c3ccccc3c3ccccc32)c1 [Compound H-699]	++ (Hydrolysis causes conversion to H-700)	
O=C(O)c1cc(NC(=O)c2cnccn2)cc(NC(=O)n2c3ccccc3c3ccccc32)c1 [Compound H-700]	++	
COC(=O)c1cc(NC(=O)c2ccc3ccccc3c2)cc(NC(=O)N(c2ccccc2)c2ccccc2)c1 [Compound H-728]	+ (Hydrolysis causes conversion to H-732)	
COC(=O)c1cc(NC(=O)c2ccc3ccccc3n2)cc(NC(=O)N(c2ccccc2)c2ccccc2)c1 [Compound H-729]	++ (Hydrolysis causes conversion to H-733)	
COC(=O)c1cc(NC(=O)c2ccc3c(c2)OCCO3)cc(NC(=O)N(c2ccccc2)c2ccccc2)c1 [Compound H-730]	++ (Hydrolysis causes conversion to H-734)	

SMILES	Pin1 inhibition activity Cell-based assay (Pin1 [1])	inhibition at 10 µM (Pin1 [2]) [%]
COC(=O)c1cc(NC(=O)c2cnc3ccccc3n2)cc(NC(=O)N(c2ccccc2)c2ccccc2)c1 [Compound H-731]	+++ (Hydrolysis causes conversion to H-735)	
O=C(O)c1cc(NC(=O)c2ccc3ccccc3c2)cc(NC(=O)N(c2ccccc2)c2ccccc2)c1 [Compound H-732]	+	
O=C(O)c1cc(NC(=O)c2ccc3ccccc3n2)cc(NC(=O)N(c2ccccc2)c2ccccc2)c1 [Compound H-733]	−	61
O=C(O)c1cc(NC(=O)c2ccc3c(c2)OCCO3)cc(NC(=O)N(c2ccccc2)c2ccccc2)c1 [Compound H-734]	−	82
O=C(O)c1cc(NC(=O)c2cnc3ccccc3n2)cc(NC(=O)N(c2ccccc2)c2ccccc2)c1 [Compound H-735]	+	
COC(=O)c1cc(NC(=O)Cn2c3ccccc3c3ccccc32)cc(NC(=O)c2ccc3ccccc3c2)c1 [Compound H-744]	+ (Hydrolysis causes conversion to H-745)	
O=C(Cn1c2ccccc2c2ccccc21)Nc1cc(NC(=O)c2ccc3ccccc3c2)cc(C(=O)O)c1 [Compound H-745]	−	88 to 95
COC(=O)c1cc(NC(=O)Cn2c3ccccc3c3ccccc32)cc(NC(=O)c2ccc3ccccc3n2)c1 [Compound H-746]	− (Hydrolysis causes conversion to H-747)	
O=C(Cn1c2ccccc2c2ccccc21)Nc1cc(NC(=O)c2ccc3ccccc3n2)cc(C(=O)O)c1 [Compound H-747]	++	
COC(=O)c1cc(NC(=O)Cn2c3ccccc3c3ccccc32)cc(NC(=O)c2ccc3c(c2)OCCO3)c1 [Compound H-748]	++ (Hydrolysis causes conversion to H-749)	
O=C(Cn1c2ccccc2c2ccccc21)Nc1cc(NC(=O)c2ccc3c(c2)OCCO3)cc(C(=O)O)c1 [Compound H-749]		53
COC(=O)c1cc(NC(=O)COc2ccccc2)cc(NC(=O)n2c3ccccc3c3ccccc32)c1 [Compound H-758]	− (Hydrolysis causes conversion to H-759)	
COC(=O)c1cc(NC(=O)COc2ccc3ccccc3c2)cc(NC(=O)n2c3ccccc3c3ccccc32)c1 [Compound H-760]	+ (Hydrolysis causes conversion to H-761)	
COC(=O)c1cc(NC(=O)COc2ccc3ccccc3n2)cc(NC(=O)n2c3ccccc3c3ccccc32)c1 [Compound H-764]	− (Hydrolysis causes conversion to H-765)	
COC(=O)c1cc(NC(=O)CNC(=O)c2ccccc2)cc(NC(=O)n2c3ccccc3c3ccccc32)c1 [Compound H-766]	+ (Hydrolysis causes conversion to H-767)	
COC(=O)c1cc(NC(=O)CNC(=O)OCc2ccccc2)cc(NC(=O)n2c3ccccc3c3ccccc32)c1 [Compound H-768]	− (Hydrolysis causes conversion to H-769)	
O=C(CN(c1ccccc1)c1ccccc1)Nc1cc(NC(=O)c2ccc3c(c2)OCCO3)cc(C(=O)O)c1 [Compound H-823]		4.2
O=C(CN(c1ccccc1)c1ccccc1)Nc1cc(NC(=O)c2ccccc2)cc(C(=O)O)c1 [Compound H-825]		19.9
